The test system of experiment [1] is BDBV mucin-domain-deleted glycoprotein pseudotyped VSV. The experiment in a line: microbe, parasite or virus in culture. The format is cell-based, Bundibugyo ebolavirus. As to conditions: Vesicular stomatitis virus, Vero, read-out: EC50 BDBV.
Experiment [2] has as its system EBOV mucin-domain-deleted glycoprotein pseudotyped VSV. The experiment in a line: microbe, parasite or virus in culture. The format is cell-based, Zaire ebolavirus. As to conditions: Zaire ebolavirus, Vero, read-out: EC50 EBOV.

Where two headings read alike, the source gives them in different places. Some results are limits rather than exact numbers.

This passage reports EC50 results from patent US12240857B2 (priority 2017, dated 2025).

The term EC50 denotes the midpoint of the concentration-response curve.

As for `CC(NC(=O)C1CCCN1)C12CC3CC(CC(C3)C1)C2` (stereo in doubt) [Example D43, (2R)-N-[1-(adamantan-1-yl)ethyl] pyrrolidine-2-carboxamide], the results for the EC50 in experiment [1] (24 h) and in experiment [2] (24 h) were 2500 nM and 4600 nM, respectively. With `O=C(CC12CC3CC(C1)CC(c1ccccc1)(C3)C2)NCC(=O)N1CCC2(CCN(Cc3ccccc3)C2)C1` (stereo not drawn) [Example A11], the EC50 in experiment [1] amounted to 230 nM; in experiment [2], 200 nM. On the same counts, the results for `O=C(CNC(=O)C12CC3CC(CC1C3)C2)N1CCN(Cc2ccccc2)CC1` [Example A18] are more than 10000 nM and more than 10000 nM. Consider `O=C(NC1CCN(Cc2ccccc2)CC1)C12CC3CC(CC1C3)C2` [Example A21], for which the EC50 in experiment [1] and in experiment [2] was more than 10000 nM throughout.

Consider `CN(CCN(C)C(=O)C12CC3CC(C1)CC(c1ccccc1)(C3)C2)Cc1ccccc1` [Example A22], for which the EC50 in experiment [1] is 220 nM; in experiment [2], 260 nM. On the same counts, the results for `CN(C(=O)C12CC3CC(C1)CC(c1ccccc1)(C3)C2)C1CCN(Cc2ccccc2)CC1` [Example A23] are 170 nM and 210 nM.

Consider `CN1CC[C@@H](NC(=O)CC23CC4CC(C2)CC(c2ccccc2)(C4)C3)C1` [Example A40], for which the concentration for a half-maximal effect (EC50) in experiment [1] came out at 160 nM; in experiment [2], 310 nM. On to `O=C(CC12CC3CC(CC(C3)C1)C2)N1CC2CC1CN2Cc1ccccc1` (stereo not drawn) [Example A53], for which the EC50 stood at 9000 nM in experiment [1] and 9200 nM in experiment [2]. As for `COC(=O)c1ccc(COc2ccccc2CN2CC3CC2CN3C(=O)CC23CC4CC(CC(C4)C2)C3)cc1` (stereo not drawn) [Example A57], the EC50 was more than 10000 nM in experiment [1] and 2900 nM in experiment [2]. As for `COC(=O)c1ccc(COc2ccccc2CN2CCC3(CCN(C(=O)CNC(=O)CC45CC6CC(CC(C6)C4)C5)C3)C2)cc1` (stereo not drawn) [Example A59], the EC50 worked out at 1500 nM in experiment [1] and 1100 nM in experiment [2]. Taken in the same sequence, the figures for `O=C(NC1CCNCC1)C12CC3CC(C1)CC(c1ccc([N+](=O)[O-])cc1)(C3)C2` [Example A76] were 1060 nM and 1050 nM. Take `CC12CC3CC(C(=O)NCC4(O)CNC4)(C1)CC(c1ccccc1)(C3)C2` (stereo not drawn) [Example A101]: the EC50 in experiment [1] and in experiment [2] was more than 1000 nM throughout.

In the case of `COC(=O)[C@H]1CN(C(=O)C23CC4CC(C)(C2)CC(c2ccccc2)(C4)C3)CCN1` (stereo partly drawn) [Example A106], the concentration giving a half-maximal response (EC50) in experiment [1] and in experiment [2] was more than 1000 nM throughout. For `CCOC12CC3CC(C1)CC(C(=O)NC1CCNCC1)(C3)C2` [Example A113], the 50% effective concentration (EC50) in experiment [1] and in experiment [2] was more than 1000 nM in each case. As for `N[C@H]1CC[C@H](NC(=O)C23CC4CC(C(=O)N5CCCC5)(C2)CC(c2ccccc2)(C4)C3)CC1` (stereo partly drawn) [Example A114], the EC50 in experiment [1] and in experiment [2] was more than 1000 nM in each case. Turning to `N[C@H]1CC[C@H](NC(=O)C23CC4CC(CO)(C2)CC(c2ccccc2)(C4)C3)CC1` (stereo partly drawn) [Example A116, trans-N-(4-aminocyclohexyl)-3-(hydroxymethyl)-5-phenyladamantane-1-carboxamide], the EC50 in experiment [1] and in experiment [2] was more than 1000 nM in each case.

Turning to `CCC(NCC(O)COc1ccccc1C(C)C)C12CC3CC(CC(C3)C1)C2` (stereo not drawn) [Example D3], the EC50 in experiment [2] (24 h) stood at 1290 nM. With `OC(COC12CC3CC(CC(C3)C1)C2)CN1CCc2ccccc2C1` (stereo not drawn) [Example D18, 1-(adamantan-1-yloxy)-3-(1,2,3,4-tetrahydroisoquinolin-2-yl)propan-2-ol], the EC50 in experiment [2] (24 h) was more than 10000 nM. Still for that read-out and setting: in the case of `COc1ccccc1N1CCN(CC(O)COC23CC4CC(CC(C4)C2)C3)CC1` (stereo not drawn) [Example D19, 1-(adamantan-1-yloxy)-3-[4-(2-methoxyphenyl)piperazin-1-yl] propan-2-ol] it was more than 10000 nM; in that of `CC1CCCCN1CC(O)COC12CC3CC(CC(C3)C1)C2` (stereo not drawn) [Example D20, 1-(adamantan-1-yloxy)-3-(2-methylpiperidin-1-yl)propan-2-ol], more than 10000 nM.
